Residues, ends and D or L forms follow the SMILES beside them. *: point of attachment. Cbz = O=C(OCc1ccccc1)*
Experiments:
[1] = system: macrophage MT-1 induced from iPS cells (mutant NLRP3 gene); test: amount of IL-6 secretion from LPS-stimulated macrophage MT-1 (Human Th1/Th2 11plex Kit); settings: 100 ng/ml IL-1Ra, 12 μM Bay11-7028 or 10 μM Parthenolide; two hours, then drug and LPS (1 μg/ml) four hours; FIG. 5C
[2] = system: macrophage MT-1 induced from iPS cells (mutant NLRP3 gene); settings: for amount of secretion of IL-1β: 100 ng/ml IL-1Ra, 12 μM Bay11-7028, 50 μM CA074Me or 10 μM Parthenolide, two hours, then drug and LPS (1 μg/ml) four hours, FIG. 5A; for amount of IL-1β secretion: each concentration of drug, cultured two hours, then drug and LPS (1 μg/ml) another four hours, FIG. 4
[3] = system: macrophage MT-1 induced from iPS cells (mutant NLRP3 gene); test: amount of IL-8 secretion from LPS-stimulated macrophage MT-1 (Human Th1/Th2 11plex Kit); settings: 100 ng/ml IL-1Ra, 12 μM Bay11-7028 or 10 μM Parthenolide; two hours, then drug and LPS (1 μg/ml) four hours; FIG. 5B

Molecule	amount of secretion of IL-6 [1]	amount of secretion of IL-1β [2]	amount of secretion of IL-8 [3]	amount of IL-1β secretion [2]
Cc1ccc(S(=O)(=O)/C=C/C#N)cc1 [Bay11-7028]	inhibited	inhibited	inhibited	–
CCCNC(=O)[C@H]1O[C@@H]1C(=O)N[C@H](C(=O)N1CCC[C@H]1C(=O)OC)[C@@H](C)CC [CA074Me]	–	specifically inhibited	–	–
C[C@@H]1C[C@@H]([C@H](O)CC2CC(=O)NC(=O)C2)C(=O)[C@@H](C)C1 [CHX, cycloheximide]	–	–	–	inhibited IL-1β secretion in a dose dependent manner
CC(C)C[C@@H](C=O)NC(=O)[C@H](CC(C)C)NC(=O)[C@H](CC(C)C)NC(=O)OCc1ccccc1 [MG132] (Cbz-Leu-Leu-Leu-aldehyde)	–	–	–	inhibited IL-1β secretion in a dose dependent manner
IL-1Ra: interleukin 1 receptor antagonist (R&D Systems)	did not change	did not change	did not change	–

— patent publication US9557321B2, “Method for screening drugs for suppressing inflammasome activity” (KYOTO UNIVERSITY, priority 2010, dated 2017)
